* marks the point of attachment. Palmitoyl = CCCCCCCCCCCCCCCC(=O)*
Test system: IL-6
Assay: Synergy test: IL-6 production on HK following blue light irradiation (ELISA)
Type: cell-based, human
Conditions: blue light 30.2 J/cm2, 24 hours contact, compound taken separately, nsd
Experimental: HK are cultivated in their culture medium. After rinsing with PBS, the cells are returned to this same buffer and exposed to blue light at a non-cytotoxic dose of 30.2 J/cm^2. The exhibition system consists of a set of 30 blue LEDs spread over a 30 cm^2 flat surface. The photon flux reaches the cells perpendicularly. The temperature is controlled, and all the cells are in the same enclosure (37° C./5% CO2). The emission spectrum is centered on 420 nm. The cells are then brought into contact with each of the invention compounds taken separately or with the composition according to the invention for 24 hours. The culture media are then harvested, and the IL-6 concentrations assayed by ELISA method. An assay on the cell layers is used to reduce to the number of cells.

Compound	% of variation in IL-6 production (1.6 ppm)	% of variation in IL-6 production (15 ppm)
O=c1cc(-c2ccccc2)oc2cc(O)cc(O)c12 [Chrysine, 5,7-dihydroxyflavone]	−10%	
Palmitoyl-GQPR-OH [Pal-GQPR]		−7%
